What was measured:
[1] = system: patients undergoing esophagectomy; assay: Postoperative complications according to the Clavien-Dindo classification; assay type: in vivo, human
Text: (§1) Forty patients with primary esophageal cancer who underwent esophagectomy were selected to participate in a randomized, placebo-controlled phase II study. The patients were selected based on the following eligibility criteria: (1) thoracic esophageal cancer treated by performing radical esophagectomy with gastric tube reconstruction; (2) age 20 to 75 years; (3) adequate functioning of major organs; (4) no other active malignancies; and (5) provision of written informed consent. The following exclusions criteria were used: (1) preoperative diagnosis of esophageal cancer invasion to the aorta or trachea and other organs; (2) patients with multiple cancer; (3) severe respiratory problems, such as emphysema; (4) patients with prior ischemic heart disease; (5) liver cirrhosis or active hepatitis; (6) renal failure requiring dialysis treatment; (7) poorly controlled diabetes mellitus or disease requiring insulin treatment; (8) consecutive use of steroids; and (9) mental disorder. The patients were randomly divided into a ghrelin group and a placebo group at a 1:1 ratio. The approach for thoracic manipulation (i.e., open or thoracoscopic surgery) was used as the only stratification factor. Group allocation was performed before the initiation of surgery. The study was performed in a double-blind manner, and an independent researcher assessed outcomes.
(§2) The primary endpoint of this study was SIRS duration. The secondary endpoints were postoperative complications, serum C-reactive protein (CRP) and IL-6 levels, time required to attain a positive nitrogen balance, and changes in body weight and body composition. Postoperative complications were defined as adverse events caused by surgery. Patients received an intravenous continuous infusion of ghrelin (0.5 μg/kg/h) or placebo (pure saline) for 5 days postoperatively. Ghrelin was diluted to a final volume of 48 mL with saline, and the solution was administered at a rate of 2 mL/h by using an infusion pump through a central venous catheter inserted into the right subclavian vein. The same amount of ghrelin was administered via intravenous infusion during the 5 days of treatment; the dose was calculated on the basis of body weight on the day before surgery. Patients in the placebo group received the corresponding infusion containing pure saline using same procedure.
(§3) Blood sampling was performed at the following 7 time points: before surgery; 2 hours after initiation of surgery (during thoracotomy); 4 hours after initiation of surgery (during laparotomy); and on PODs 1, 3, 7, and 10. Complete blood count was performed every day for at least 10 PODs. If the leukocyte count was not within the normal range on POD10, complete blood counts were performed daily until it was within the normal range for 3 consecutive days. SIRS was diagnosed according to the criteria proposed by the American College of Chest Physicians/Society of Critical Care Medicine Consensus Conference^32 and when 2 or more of the following criteria were present: (1) body temperature less than 36° C. or more than 38° C.; (2) heart rate more than 90 beats per minute; (3) tachypnea with more than 20 breaths per minute or an arterial partial pressure of carbon dioxide less than 32 mm Hg; and (4) white blood cell count less than 4000 cells/mm^3, >12,000 cells/mm^3, or an immature (band) form more than 10%. Postoperative complications were evaluated according to the Clavien-Dindo classification.^33 Grade I required no treatment, grade II required medical therapy, grade Ma required interventions but not general anesthesia, grade Mb required general anesthesia, grade IV represented life-threatening states that required intensive care, and grade V represented death.

[2] = system: patients undergoing esophagectomy; assay: Laboratory tests, nutrition status and hormone assays, preoperative and POD7; assay type: in vivo, human
Procedure: as §2, §3
(§4) Sampled blood was immediately transferred into a chilled glass tube containing disodium ethylenediaminetetraacetic acid for plasma sampling or a separating agent for serum sampling, and the samples were then centrifuged at 4° C. Plasma samples were mixed with a 10% volume of 1 N HCl and stored at −80° C. Serum samples were directly stored at −80° C. Sandwich-type enzyme immunoassay kits were used to measure levels of plasma active ghrelin, des-acyl ghrelin, and serum IL-6 according to the manufacturers' protocols (for ghrelin: Mitsubishi Kagaku Iatron, Inc, Tokyo, Japan; for IL-6: R&D Systems, Minneapolis, Minn.). Total plasma ghrelin levels were calculated as the active ghrelin level plus the des-acyl ghrelin level.^34 An Access 2 kit, a chemiluminescent enzyme immunoassay (Beckman Coulter, Inc, Brea, Calif.), was used to measure serum GH levels.

[3] = Plasma ghrelin concentration (enzyme immunoassay), randomized placebo-controlled phase II study; assay type: in vivo, human
Text: as §1, §2, §3
Sampled blood was immediately transferred into a chilled glass tube containing disodium ethylenediaminetetraacetic acid for plasma sampling or a separating agent for serum sampling, and the samples were then centrifuged at 4° C. […]

[4] = system: interleukin-6 (IL-6); assay: Postoperative change in serum IL-6 (enzyme immunoassay); assay type: in vivo, human; details: n=20
Procedure: as §2, §3, §4

[5] = system: GH secretion; assay: Mode of ghrelin administration and GH secretion (unpublished data); assay type: in vivo; details: continuous infusion vs periodic injection
[6] = ghrelin 0.5 μg/kg/h continuous i.v. for 5 days, n=20

CCCCCCCC(=O)OC[C@H](NC(=O)[C@H](CO)NC(=O)CN)C(=O)N[C@@H](Cc1ccccc1)C(=O)N[C@@H](CC(C)C)C(=O)N[C@@H](CO)C(=O)N1CCC[C@H]1C(=O)N[C@@H](CCC(=O)O)C(=O)N[C@@H](Cc1cnc[nH]1)C(=O)N[C@@H](CCC(N)=O)C(=O)N[C@@H](CCCNC(=N)N)C(=O)N[C@H](C(=O)N[C@@H](CCC(N)=O)C(=O)N[C@@H](CCC(N)=O)C(=O)N[C@@H](CCCNC(=N)N)C(=O)N[C@@H](CCCCN)C(=O)N[C@@H](CCC(=O)O)C(=O)N[C@@H](CO)C(=O)N[C@@H](CCCCN)C(=O)N[C@@H](CCCCN)C(=O)N1CCC[C@H]1C(=O)N1CCC[C@H]1C(=O)N[C@@H](C)C(=O)N[C@@H](CCCCN)C(=O)N[C@@H](CC(C)C)C(=O)N[C@@H](CCC(N)=O)C(=O)N1CCC[C@H]1C(=O)N[C@@H](CCCNC(=N)N)C(=O)O)C(C)C [ghrelin]
Anastomotic leak, number of patients ([1]; Grade 0, n=20): 19
Arrhythmia, number of patients ([1]; Grade 0, n=20): 19
Bleeding, number of patients ([1]; Grade 0, n=20): 20
Lymphorrhea, number of patients ([1]; Grade 0, n=20): 20
Pneumonia, atelectasis, number of patients ([1]; Grade 0, n=20): 14
Recurrent nerve paralysis, number of patients ([1]; Grade 0, n=20): 18
Wound infection, number of patients ([1]; Grade 0, n=20): 19
Anastomotic leak, number of patients ([1]; Grade I, II, n=20): 1
Arrhythmia, number of patients ([1]; Grade I, II, n=20): 1
Bleeding, number of patients ([1]; Grade I, II, n=20): 0
Lymphorrhea, number of patients ([1]; Grade I, II, n=20): 0
Pneumonia, atelectasis, number of patients ([1]; Grade I, II, n=20): 4
Recurrent nerve paralysis, number of patients ([1]; Grade I, II, n=20): 2
Wound infection, number of patients ([1]; Grade I, II, n=20): 1
Anastomotic leak, number of patients ([1]; Grade III, IV, n=20): 0
Arrhythmia, number of patients ([1]; Grade III, IV, n=20): 0
Bleeding, number of patients ([1]; Grade III, IV, n=20): 0
Lymphorrhea, number of patients ([1]; Grade III, IV, n=20): 0
Pneumonia, atelectasis, number of patients ([1]; Grade III, IV, n=20): 2
Recurrent nerve paralysis, number of patients ([1]; Grade III, IV, n=20): 0
Wound infection, number of patients ([1]; Grade III, IV, n=20): 0
Postoperative complications of higher than grade 1 (Clavien-Dindo), number of patients [1, 6]: 10
Postoperative complications of higher than grade 1 (Clavien-Dindo), share of patients [1, 6]: 50%
incidence of pulmonary complications, including postoperative pneumonia and atelectasis, versus placebo group ([1]; ghrelin 0.5 μg/kg/h continuous i.v. for 5 days, P=0.016): significantly lower
Alanine aminotransferase ([2]; Postoperative (POD7)): 40.6 ± 24.6 IU/L
Albumin ([2]; Postoperative (POD7)): 2.99 ± 0.45 g/dL
Asparate aminotransferase ([2]; Postoperative (POD7)): 34.0 ± 15.9 IU/L
Blood urea nitrogen ([2]; Postoperative (POD7)): 19.3 ± 6.8 mg/dL
Choline esterase ([2]; Postoperative (POD7)): 154.1 ± 50.7 IU/L
Creatinine ([2]; Postoperative (POD7)): 0.77 ± 0.19
Growth hormone ([2]; Postoperative (POD7)): 1.08 ± 1.16 ng/mL
Hemoglobin ([2]; Postoperative (POD7)): 10.1 ± 1.3 g/dL
Leukocytes ([2]; Postoperative (POD7)): 9068 ± 2633 /mm
Lymphocytes ([2]; Postoperative (POD7)): 1380 ± 495 /mm
Retinol binding protein ([2]; Postoperative (POD7)): 3.63 ± 1.56 mg/dL
Total bilirubin ([2]; Postoperative (POD7)): 1.25 ± 0.80 mg/dL
Total protein ([2]; Postoperative (POD7)): 5.66 ± 0.70 g/dL
Transferrin ([2]; Postoperative (POD7)): 146.4 ± 35.3 mg/dL
Transthyretin ([2]; Postoperative (POD7)): 20.1 ± 6.7 mg/dL
Alanine aminotransferase ([2]; Preoperative (baseline)): 18.3 ± 14.1 IU/L
Albumin ([2]; Preoperative (baseline)): 3.78 ± 0.50 g/dL
Asparate aminotransferase ([2]; Preoperative (baseline)): 20.2 ± 7.2 IU/L
Blood urea nitrogen ([2]; Preoperative (baseline)): 15.1 ± 4.7 mg/dL
Choline esterase ([2]; Preoperative (baseline)): 263.5 ± 83.8 IU/L
Creatinine ([2]; Preoperative (baseline)): 0.88 ± 0.21
Growth hormone ([2]; Preoperative (baseline)): 0.51 ± 0.54 ng/mL
Hemoglobin ([2]; Preoperative (baseline)): 11.3 ± 1.5 g/dL
Leukocytes ([2]; Preoperative (baseline)): 5472 ± 1970 /mm
Lymphocytes ([2]; Preoperative (baseline)): 1644 ± 585 /mm
Retinol binding protein ([2]; Preoperative (baseline)): 4.86 ± 1.71 mg/dL
Total bilirubin ([2]; Preoperative (baseline)): 0.58 ± 0.20 mg/dL
Total protein ([2]; Preoperative (baseline)): 6.44 ± 0.59 g/dL
Transferrin ([2]; Preoperative (baseline)): 198.1 ± 30.8 mg/dL
Transthyretin ([2]; Preoperative (baseline)): 28.8 ± 9.1 mg/dL
Total ghrelin ([3]; Postoperative (POD7)): 60.2 ± 34.1 imol/mL
Total ghrelin ([3]; Preoperative (baseline)): 106.6 ± 76.8 imol/mL
level at time molar at 2 h ([3]; human, plasma, iv, 0.5 ug/kg/h, 2 hours after the start of injection, 0.5 μg/kg/h continuous i.v. infusion): 0.743 ± 0.191 nM
level at time molar at 4 h ([3]; human, plasma, iv, 0.5 ug/kg/h, 4 hours after the start of injection, 0.5 μg/kg/h continuous i.v. infusion): 0.711 ± 0.146 nM
level at time molar at 1 postoperative day ([3]; human, plasma, iv, 0.5 ug/kg/h, POD1, during infusion 0.5 μg/kg/h): 0.749 ± 0.143 nM
level at time molar at 3 postoperative day ([3]; human, plasma, iv, 0.5 ug/kg/h, POD3, during infusion 0.5 μg/kg/h): 0.737 ± 0.199 nM
level at time molar at 7 postoperative day ([3]; human, plasma, iv, 0.5 ug/kg/h, POD7, after administration of ghrelin): 0.0602 ± 0.0341 nM
level at time molar at 10 postoperative day ([3]; human, plasma, iv, 0.5 ug/kg/h, POD10, after administration of ghrelin): 0.063 ± 0.031 nM
level at time molar ([3]; human, plasma, iv, 0.5 ug/kg/h, before ghrelin administration (baseline), ghrelin group n=20): 0.107 ± 0.0768 nM
Serum IL-6 ([4]; POD1): 95.2 ± 131.0 pg/mL
Serum IL-6 ([4]; POD3): 43.1 ± 47.1 pg/mL
Serum IL-6 ([4]; POD3, listed as Ghrelin): 43.1 ± 47.1 pg/mL
Serum IL-6 ([4]; POD7): 15.3 ± 11.3 pg/mL
Serum IL-6 ([4]; POD10): 14.2 ± 17.9 pg/mL
Serum IL-6 ([4]; Preoperative (baseline)): 4.3 ± 4.8 pg/mL
GH secretion by mode of ghrelin administration [5]: continuous infusion was better than periodic injection
